Key:
Male Wistar rats [1] = assay: Hypotensive effects after RRx-001 treatment; type: in vivo, rat; settings: treatment after reperfused MI
Procedure: (§1) Animal experiments were performed in accordance with protocols approved. Male Wistar rats or subjects (about 8-9 weeks old) were purchased from Charles River (San Diego, California) and allowed about 1 week to acclimatize to the new environment prior to random allocation into four groups (n=8 per group). The groups included: a first group 106 (sham), a second group 108 (RRx-001), a third group 110 (RRx-001 I/R), and a fourth group 112 (I/R).
The first group 106 included sham subjects (e.g., no treatment). The subjects of the second group 108 were given about 5 mg/kg of RRx-001 prepared in dimethyl sulfoxide (DMSO) and administered to the subjects via intravenous administration. The subjects of the second group 108 were not subjected to ischemia. The subjects of the third group 110 were administered about 0.5 mg/kg of RRx-001 prepared in DMSO via intravenous administration during reperfusion after ischemia. The subjects of the fourth group 112 were untreated, but subjected to ischemia and reperfusion. […]
(§2) Regarding the myocardial ischemia reperfusion, the subjects were anesthetized with isoflurane (5% induction and 2% maintenance in 30% oxygen) and placed on a thermal heating pad. […] The knot was removed, the chest was closed, and the hearts of the subjects were monitored for a time period of one hour during reperfusion. […]

Male Wistar rats [2] = assay: Acute changes in heart rate during reperfusion, rat myocardial ischemia reperfusion; type: in vivo; settings: infusion of RRx-001, i.v. in DMSO; in sham animals or relative to animals with I/R; FIG. 1
Procedure: as §1
The first group 106 included sham subjects (e.g., no treatment). The subjects of the second group 108 were given about 5 mg/kg of RRx-001 prepared in dimethyl sulfoxide (DMSO) and administered to the subjects via intravenous administration. The subjects of the second group 108 were not subjected to ischemia. […]
as §2
FIG. 1 depicts a graph comparing acute changes in heart rate (HR) during reperfusion for various groups of Example 1, according to at least some embodiments disclosed herein. FIG. 1 includes an x-axis 102 associated with time (measured in minutes) and a y-axis 104 associated with HR (measured in beats per minute or “bpm”).

Q: What does the source list for `O=C(CBr)N1CC([N+](=O)[O-])([N+](=O)[O-])C1` [RRx-001, 2-bromo-1-(3,3-dinitroazetidin-1-yl)ethan-1-one]?
A: hypotensive effects (Male Wistar rats [1]): No hypotensive effects were observed; acute changes in heart rate (HR) during reperfusion (Male Wistar rats [2]): did not result in any acute changes in HR

Reference: US20260248762A1, “RRX-001 FOR […]-INFARCT ADVERSE V[…] COMPLICATIONS” (EpicentRx, Inc., priority 2022, published 2026)
